Test results reported in paper PMC3774784 (Bioorganic & medicinal chemistry letters, 2011).
Where two headings read alike, the source gives them in different places. Values belong to the compound of their own block, whether it stands above or below them.

Key:
[1] = test system: KDR; details: read-out: Reported KDR Inhibition IC50; cited from earlier work
[2] = biological target: human VEGFR2 kinase (Homo sapiens, UniProt P35968); test: KDR ELISA assay; type: biochemical
[3] = test system: KDR; details: read-out: reported IC50 value; final ATP concentration 2 μM; cited from earlier work

Sequence of human VEGFR2 kinase (P35968 790-1356 limits assumed): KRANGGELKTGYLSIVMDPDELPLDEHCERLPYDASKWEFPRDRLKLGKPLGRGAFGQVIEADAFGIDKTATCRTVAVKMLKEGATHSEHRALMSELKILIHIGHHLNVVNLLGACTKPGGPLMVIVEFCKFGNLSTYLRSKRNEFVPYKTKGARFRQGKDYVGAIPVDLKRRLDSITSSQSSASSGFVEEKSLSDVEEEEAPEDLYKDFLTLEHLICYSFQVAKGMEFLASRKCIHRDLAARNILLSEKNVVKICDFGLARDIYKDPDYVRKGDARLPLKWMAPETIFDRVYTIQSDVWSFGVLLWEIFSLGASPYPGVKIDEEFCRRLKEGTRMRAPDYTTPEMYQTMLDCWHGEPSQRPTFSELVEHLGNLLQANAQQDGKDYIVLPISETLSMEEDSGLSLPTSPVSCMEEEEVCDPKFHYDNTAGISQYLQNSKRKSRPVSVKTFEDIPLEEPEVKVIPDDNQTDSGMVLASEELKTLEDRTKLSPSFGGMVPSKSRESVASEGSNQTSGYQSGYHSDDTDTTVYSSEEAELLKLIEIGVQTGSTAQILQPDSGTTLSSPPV

SMILES: COc1cc2ncnc(Nc3ccc(Cl)cc3)c2cc1OC [Compound 10, (4-Chloro-phenyl)-(6,7-dimethoxy-quinazolin-4-yl)-amine]
IC50 [1]: 0.8 µM
KDR assay activity in words [2]: relatively inactive

IC50 [2]: 2.5 µM
SMILES: COc1cc2ncnc(Nc3ccc(C)c(F)c3)c2cc1OC [Compound 14, (6,7-Dimethoxy-quinazolin-4-yl)-(3-fluoro-4-methyl-phenyl)-amine]

KDR assay activity in words [2]: active
SMILES: COc1ccc(-c2cnc3c(-c4ccsc4)cnn3c2)cc1 [Compound 21, 6-(4-Methoxy-phenyl)-3-thiophen-3-yl-pyrazolo[1,5-a]pyrimidine]

IC50 ([2]; read-out: KDR IC50, 20 μM ATP): 0.8 µM
SMILES: COc1cc2nccc(Oc3ccc(NC(=O)Nc4ccc(F)cc4F)c(F)c3)c2cc1OC [Ki8751, reference compound]
IC50 [3]: 0.0009 µM
